Results as given in US6603023B2 (priority 1996, dated 2003).
Like-named read-outs stand apart in the source and are kept apart here.

Tests used:
[1] = tested on: CCRF-CEM human T-cell acute lymphoblastic leukemia cell line; experiment: XTT cytotoxicity (cell growth inhibition), CCRF-CEM; details: Homo sapiens, CCRF-CEM
Procedure, shortened: (§1)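 Growth was read by XTT/PMS reduction over 4 h at 37 °C after 72 h of compound treatment, with absorbance at 450 nm and 630 nm. CCRF-CEM, P388 and their resistant sublines, grown continuously with their selecting drugs, were cultured in duplicate at 5×10^4 cells/mL. The medium was RPMI-1640 with 10% FBS.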

[2] = tested on: human ovarian adenocarcinoma SK-OV-3
CCRF-CEM/VM1 = experiment: cells; assay type: cell-based, human; details: Homo sapiens, CCRF-CEM
Procedure, shortened: as §1

MCF-7/Adr = experiment: cells; assay type: cell-based, human; details: Homo sapiens, NCI/ADR-RES, 72 h
Experimental: Cultures were fixed with trichloroacetic acid and then stained for 30 min with 0.4% suforhodamine B dissolved in 1% acetic acid. Unbound dye was removed by acetic acid washes, and the protein-bound dye was extracted with an unbuffered Tris base (tris(hydroxy-methyl)aminomethane) for determination of absorbance at 570 nm in a 96-well microtiter plate reader. The experiments were carried out in duplicate. Each run entailed six to seven concentrations of the tested drugs.

Human CCRF-CEM Xenograft = experiment: CCRF-CEM xenograft in scid mice; assay type: in vivo, CB-17 scid mice
[3] = tested on: human neuroblastoma SK-N-As; experiment: SRB cytotoxicity, SK-N-As; assay type: cell-based; details: Homo sapiens, SK-N-AS, 72 h
Experimental: The DC-3F hamster lung fibroblast cell line and its actinomycin D-selected sublines (DC-3F/ADII and DC-3F/ADX) were obtained from the Memorial Sloan-Kettering Cancer Center (MSKCC).
The drug-resistant cell lines were continuously cultured in the presence of the selecting agent, AD, DX, VBL or VM to maintain the drug resistant phenotypes. […] All cells were cultured in RPMI 1640-10% FBS at 37° C. 5% CO2 (see below).
The cytotoxicity of the drug toward the monolayer cell cultures (such as DC-3F, MCF-7, SK-N-As and sublines) was determined in 96-well microtiter plates by the SRB method as described by Skehan and co-workers (Skehan, P., et al., J. Natl. Cancer Inst. 1990, 82, 1107-1112) for measuring the cellular protein content. Cultures were fixed with trichloroacetic acid and then stained for 30 min with 0.4% suforhodamine B dissolved in 1% acetic acid. Unbound dye was removed by acetic acid washes, and the protein-bound dye was extracted with an unbuffered Tris base (tris(hydroxy-methyl)aminomethane) for determination of absorbance at 570 nm in a 96-well microtiter plate reader. The experiments were carried out in duplicate. Each run entailed six to seven concentrations of the tested drugs. Data were analyzed with the median-effect plot (Chou, T.-C. & Talalay, P. T. (1984) Adv. Enzyme Regul. 22, 27-55) using a previously described computer program (Chou, J., & Chou T.-C. 1987, Dose-effect analysis with microcomputers: Quantitation of ED50, synergism, antagonism, low-dose risk, reception-ligand binding and enzyme kinetics, IBM-PC software and manual, Biosoft, Cambridge, U.K.).

[4] = tested on: A549 Human Lung Carcinoma; experiment: A549 xenograft; assay type: in vivo, nude mice; details: for Average Tumor Size, Day 11: control 96; for Average Tumor Size, Day 13: control 128; for Average Tumor Size, Day 15: control 306; for Average Tumor Size, Day 17: control 553; for Average Body Weight, Day 7: initial weight
[5] = SK-OV-3 Ovary, dEpoB 30 mg/kg Q2D x 6, Taxol 15 mg/kg Q2D x 6
[6] = dose 2.0 i.p. QD d7-10,14,15, day 12
[7] = dose 2.0 i.p. QD d7-10,14,15, day 17
[8] = dose 2.0 i.p. QD d7-10,14,15, day 22
[9] = dose 4.0 i.p. QD d7-10,14,15, day 12
[10] = dose 4.0 i.p. QD d7-10,14,15, day 17
[11] = dose 4.0 i.p. QD d7-10,14,15, day 22
[12] = A549 Lung, dEpoB 40 mg/kg Q2D x 3, Taxol 15 mg/kg Q2D x 3
[13] = Q2D x 3, 6 hr i.v. infusion: dEpoB 40, Taxol 24 mg/kg
[14] = Q2D x 3: dEpoB 30 mg/kg 18 hr i.v. infusion, Taxol 15 mg/kg 6 hr infusion, VBL 2 and VP-16 25 mg/kg i.v. inj

## CC(=O)O[C@H]1C(=O)[C@@]2(C)[C@H]([C@H](OC(=O)c3ccccc3)[C@]3(O)C[C@H](OC(=O)[C@H](O)[C@@H](NC(=O)c4ccccc4)c4ccccc4)C(C)=C1C3(C)C)[C@]1(OC(C)=O)CO[C@@H]1C[C@@H]2O [Taxol ®, paclitaxel]
[1]
  IC50: 2.1 nM
[1]; 72 h, Table 1A, XTT
  IC50: 2.1 nM
[1]; Table 1, XTT
  IC50: 2 nM
[1]; Table 2
  IC50: 2.3 nM
[1]; Table 5, single determinations
  IC50: 2.1 nM
[1]; read-out: IC50 (A), Table 2A, parent cell line
  IC50: 2.3 nM
[2]; 5 mg/kg i.p. Q2Dx5 from day 9
  Tumor Disapp.: 0/6
[2]; 5 mg/kg i.p. Q2Dx5 from day 9, day 13
  Average Body Weight Change: -1.1 g
[2]; 5 mg/kg i.p. Q2Dx5 from day 9, day 15
  Average Body Weight Change: -2.0 g
[2]; 5 mg/kg i.p. Q2Dx5 from day 9, day 17
  Average Body Weight Change: -1.0 g
[2]; 5 mg/kg i.p. Q2Dx5 from day 9, day 19
  Average Body Weight Change: -0.2 g
[2]; [5]
  Lowest Average Tumor Size (T/C): 0.02 T/C
  Tumor Disappearance: 1/4
[2]; Taxol 15 mg/kg i.v. Q2Dx5 from day 9
  Tumor Disapp.: 0/6
[2]; Taxol 15 mg/kg i.v. Q2Dx5 from day 9, day 13
  Average Body Weight Change: -0.6 g
[2]; Taxol 15 mg/kg i.v. Q2Dx5 from day 9, day 15
  Average Body Weight Change: -0.8 g
[2]; Taxol 15 mg/kg i.v. Q2Dx5 from day 9, day 17
  Average Body Weight Change: -0.8 g
[2]; Taxol 15 mg/kg i.v. Q2Dx5 from day 9, day 19
  Average Body Weight Change: -0.9 g
[2]; nude, mouse, in vivo
  Toxicity Death: 0/6
CCRF-CEM/VM1; 72 h, Table 1A, XTT
  IC50: 6.6 nM
CCRF-CEM/VM1; Table 1, XTT
  IC50: 2 nM
CCRF-CEM/VM1; Table 2, CCR-CEM/VM-1
  IC50: 3 nM
CCRF-CEM/VM1; Table 2A, Topo II gene mutated cell line
  IC50: 3 nM
CCRF-CEM/VM1; Table 5, single determinations
  IC50: 6.6 nM
MCF-7/Adr
  IC50: 150 nM
Human CCRF-CEM Xenograft; dose 2.0 i.p. QD d7-10,14,15, day 7
  Average weight change: −0.1
Human CCRF-CEM Xenograft; [6]
  Average tumor volume (control = 1.00): 0.39
  Average weight change: −1.1
Human CCRF-CEM Xenograft; [7]
  Average tumor volume (control = 1.00): 0.29
  Average weight change: −1.5
Human CCRF-CEM Xenograft; [8]
  Average tumor volume (control = 1.00): 0.28
  Average weight change: −0.3
Human CCRF-CEM Xenograft; dose 4.0 i.p. QD d7-10,14,15, day 7
  Average weight change: −0.2
Human CCRF-CEM Xenograft; [9]
  Average tumor volume (control = 1.00): 0.37
  Average weight change: −1.7
Human CCRF-CEM Xenograft; [10]
  Average tumor volume (control = 1.00): 0.23
  Average weight change: −1.9
Human CCRF-CEM Xenograft; [11]
  Average tumor volume (control = 1.00): 0.19
  Average weight change: −0.3
[3]
  IC50: 1.6 nM
[4]; [12]
  Lowest Average Tumor Size (T/C): 0.01 T/C
  Tumor Disappearance: 2/4
[4]; [13]
  Average Body Weight (change), Day 11: -2.1 g
  Average Body Weight (change), Day 13: -2.7 g
  Average Body Weight (change), Day 15: -0.9 g
  Tumor Disappearance: 4/4
  Average Tumor Size, Day 11: 14 mm^3
  Average Tumor Size, Day 13: 8 mm^3
  Average Tumor Size, Day 15: 0 mm^3
  Average Tumor Size, Day 17: 0 mm^3
  Average Body Weight, Day 7: 28.5 g
[4]; [14]
  Average Body Weight (change), Day 11: -1.2 g
  Average Body Weight (change), Day 13: -0.8 g
  Average Body Weight (change), Day 15: +0.5 g
  Tumor Disappearance: 2/4
  Average Tumor Size, Day 11: 49 mm^3
  Average Tumor Size, Day 13: 32 mm^3
  Average Tumor Size, Day 15: 7 mm^3
  Average Tumor Size, Day 17: 6 mm^3
  Average Body Weight, Day 7: 27.6 g
